The results in this text go back to patent US20100184807A1, “Methods to inhibit tumor cell growth by using proton pump inhibitors” (Bio-Quant, Inc., priority 2008, published 2010).

One experiment concerns OVCAR5 (ovarian cancer). The experiment in a line: MTT tumor cell growth assay. The experiment is classed as cell-based. The method, then:
(§1) In one study, adherent cells were plated approximately 16-24 hours before the day of the experiment in 180 μl growth media. On the day of the experiment, the plated adherent cells were analyzed and counted and suspension cells were plated in 180 μl growth media. 10× lansoprazole compounds and vehicle was prepared. The 10× lansoprazole compounds were prepared by diluting lansoprazole to final concentrations of 100 μM, 30 μM, 10 μM, 3 μM, and 1 μM. A vehicle was prepared by preparing a solution of PBS, equivalent to the volume used for 10 μM lansoprazole wherein the 1× solution constitutes ˜0.06% PBS. 10 μl of the various 10× lansoprazole solutions and the vehicle were added to the cells. The cells were incubated at 37° C., 5% CO2 for 48 hours. The media was then aspirated. The cell suspension was then spun at 1500 RPM for 10 minutes. The media was slowly removed. 200 μl of MTT solution was added to each well with a concentration of 0.863 mg/ml MTT in the growth media. The cells were incubated at 37° C., 5% CO2 for 4 hours and the medium is then aspirated. The plate containing the cell suspension was then spun at 1500 RPM for 10 minutes. The media was slowly removed using a multichannel pipettor. 100 μl of DMSO was then added to each well. The cells were incubated at 37° C., 5% CO2 for 5 minutes and the absorbance was obtained at 560 nm using a Dynex Opsys MR plate reader. The cells used for this procedure were the following cell lines: IGROV1 (ovarian cancer); OVCAR 8 (ovarian cancer); ES-2 (ovarian cancer); CAOV3 (ovarian cancer); OVCAR5 (ovarian cancer); SUDHL4 (lymphoma); RPMI8226 (myeloma); RPMI6666 (Hodgkin's lymphoma); NC37 (lymphoma); GDM-1 (leukemia); MC/CAR (prostate cancer); DU-145 (prostate cancer), J45-01 (leukemia), MOLT3 (leukemia), HUT78, J-gamma-1 (leukemia), MCF7 […], COL0205 (colon cancer), HL60 CLONE 15 (leukemia), T47D (breast cancer), P116 (intestinal cancer), KU812 (leukemia), SW620 (colon cancer), MK92-M1 (lymphoma), MV-4-11 (leukemia), HS578T (breast cancer), HT29 (colon cancer), HCT 116 (colon cancer), CAKI-1 (kidney cancer), A549 (lung cancer), H460 (lung cancer), A3 (colon cancer), MDA-MB231 […], MALME 3M (melanoma), RXF393 (kidney cancer), RS4.11 (leukemia), PC3 (prostate cancer), OVCAR3 (ovarian cancer), MDA-MB435 (melanoma), HUT102 (lymphoma), HL60 (leukemia), CCRF-CEM (leukemia), HUT78 (lymphoma), 786-O (kidney cancer), ACHN (kidney cancer), A498 (kidney cancer), H226 (lung cancer), H522 (lung cancer), HOP92 (lung cancer), SNB 19 (brain cancer), OVCAR4 (ovarian cancer), H9 (lymphoma), UO-31 (kidney cancer), HH (lymphoma), DAUDI (leukemia), LOXIMVI (melanoma), NAMALWA (lymphoma), EKVX (lung cancer), DOHH2 (lymphoma), SNB75 (brain cancer), SKMEL28 (melanoma), SKMEL5 (melanoma), SKMEL2 (melanoma), M14 (melanoma), UACC 257 (melanoma), H332M (lung cancer), KM12 (colon cancer), HCC2998 (colon cancer), G401 (kidney cancer), RS1184 (lymphoma), MC116 (leukemia), MOLT4 (leukemia), JM1 (liver cancer), HOP-62 (lung cancer), HCT-15 (colon cancer), SF-539 (brain cancer), SF295 (brain cancer), ST486 (lymphoma), U251 (brain cancer), and UACC-62 (melanoma).
(§2) Experiments, as described in Example I were conducted with lansoprazole, omeprazole and SCH 28080 at concentrations of 1 μM, 10 μM, and 100 μM. FIGS. 3A-3K show the experimental results when tumor cells from the following cell lines were treated with lansoprazole, omeprazole, and SCH 28080: IGROV1 (FIG. 3A), OVCAR8 (FIG. 3B), ES-2 (FIG. 3C), CAOV3 (FIG. 3D), OVCAR5 (FIG. 3E), SUDHL4 (FIG. 3F), RPMI8226 (FIG. 3G), RPMI6666 (FIG. 3H), NC37 (FIG. 3I), GDM-1 (FIG. 3J), and MC/CAR (FIG. 3K).

The test system of experiment [1] is RPMI6666 (Hodgkin's lymphoma). In words: MTT tumor cell growth assay. It is filed as cell-based. The method, then:
as §1, §2

Experiment [2] deals with JR, HepG2, SR Liquid Leukemia, RS1184 B Lymphoma, and G401 rhabdoid tumor cell lines. In words: Xenograft nude mouse model, all tumor lines. It is filed as in vivo. The following applies: subcutaneous xenografts. The method, then:
(§3) JR (rhabdomyosarcoma), HepG2 (liver carcinoma), SR Liquid Leukemia (leukemia), RSI 184 B Lymphoma (lymphoma), and G401 rhabdoid (kidney) cancer cells for use in a xenograft mouse model were collected from JR, HepG2, SR Liquid Leukemia, RS1184 B Lymphoma, and G401 rhabdoid tumor cell lines and injected at 5×10^6 cells per nude mouse in a volume of 100 μl subcutaneously. The animals were examined three times weekly to determine the progression of the tumors and determine body weight. Dosing started when tumors reached the ˜75-150 mm^3 size. Animals were randomized and distributed in groups in such a way that mean tumor weights in all groups were within 15% of the mean tumor weight in Group 1 (Control—vehicle group). Upon reaching the ˜75-150 mm^3 target size an effective amount of lansoprazole was administered to the mice in a suspension of PEG300 at a concentration of 100 mg/kg.

A further experiment concerns HepG2 (liver carcinoma). The experiment in a line: Xenograft nude mouse model, HepG2. It is filed as in vivo. The following applies: nude mice, 100 mg/kg in PEG300. The protocol:
as §3

Experiment [3] relates to G401 rhabdoid (kidney) cancer cells. In words: Xenograft nude mouse model, G401. As to conditions: nude mice, 100 mg/kg in PEG300. The experiment is classed as in vivo. The method, then:
as §3

For experiment [4], the system named is SR Liquid Leukemia (leukemia). In words: Xenograft nude mouse model, SR Liquid Leukemia. It is filed as in vivo. The following applies: nude mice, 100 mg/kg in PEG300. The protocol:
as §3

Molecules are shown by their SMILES.

Regarding `Cc1c(OCC(F)(F)F)ccnc1C[S+]([O-])c1nc2ccccc2[nH]1` (stereo not drawn) [lansoprazole], the “reducing tumor cell growth” value in the experiment on OVCAR5 (ovarian cancer) (OVCAR5 (FIG. 3E), 100 μM) is recorded as “effective in reducing tumor cell growth”; in experiment [1] (RPMI6666 (FIG. 3H), 100 μM), “effective in reducing tumor cell growth”. Besides, the “tumor cell growth reduction” value is recorded as “significant tumor cell growth reduction” in the experiment with OVCAR5 (ovarian cancer) (OVCAR5 cells, lansoprazole 1-100 μM, 48 hours, MTT) and “significant tumor cell growth reduction” in experiment [1] (RPMI6666 cells, lansoprazole 1-100 μM, 48 hours, MTT). The “life span of the population” value in experiment [2] (nude mice, 100 mg/kg in PEG300) is “extended life span”. Besides, in experiment [2] (100 mg/kg in PEG300, FIGS. 4A-4C and 5A-5C), the “tumor growth in mice” value is “effectively reduced tumor growth”. Besides, the “treating tumor cells derived from tumor cell line” value (in the experiment with HepG2 (liver carcinoma); in experiment [3]; in experiment [4]) was “especially effective” each time.
